# A melting point compilation (Tetko et al.; mined from patent text by program, amines drawn as free bases though some values may be those of a salt)
# Non-standard residues stand in square brackets, D forms with d. Residues, ends and D or L forms follow the SMILES beside them. ξ: configuration not given here. *: point of attachment. Cbz = O=C(OCc1ccccc1)*; Boc = CC(C)(C)OC(=O)*; Aib = CC(C)(N)C(=O)O; ξDap = NCC(N)C(=O)O
row,SMILES,melting point [°C]
1,CC(=O)c1cc2c(s1)CCCC1CC(=O)N(c3ccc(Cl)cc3)N=C21 (stereo not drawn),128 to 130
2,COC(=O)c1ccc(Cl)cc1NS(C)(=O)=O,126 to 128
3,COc1ccc(CS(=O)(=O)c2cc3ccc(O)cc3oc2=O)cc1,231 to 232
4,CN1C(CCCCCBr)Nc2cc(Cl)c(S(=O)(=O)NCc3ccccc3)cc2S1(=O)=O (stereo not drawn),141 to 142
5,COc1cc(C)n2nc(SCc3ccccc3)nc2n1,112 to 115
6,COC(=O)CCn1c(C(=O)OCc2ccccc2)cc2c(C)c(C)c(OC)cc21,198
7,COc1cc(C#N)ccc1-c1cc(-c2cc(C#N)ccc2OC)on1,271 to 273
8,CCn1c(=O)c2c(nc(C=Cc3ccc(C(=O)O)cc3OC)n2C)n(CC)c1=O,> 280
9,CC(=O)OCC(=O)Nc1ccc(C(CC2CCCC2)C(=O)Nc2nccs2)cc1 (stereo not drawn),90 to 95
10,Nc1c(-c2ccc(Cl)cc2)nc2ccc(Cl)cc2c1C(=O)O,240 to 241
11,CCOC(=O)c1cc(C#N)ccn1,170 to 172
12,c1cncc(CN2CCN(CCCCc3c[nH]c4ccc(-n5cnnc5)cc34)CC2)c1,110 to 112
13,COc1ccc2cc3[nH]cc(C#N)c(=O)c3cc2c1,> 260
14,Cc1ccc(C(O)(c2ccccc2)c2ccncc2)cc1 (stereo not drawn),192 to 195
15,CC(O)(CCF)c1ccc(-c2ccc(F)cc2)cc1 (stereo not drawn),90 to 92
16,CCc1[nH]n(C2CCCC2)c2nc(Cc3ccc(OCC(=O)O)cc3)nc(=O)c1-2,218 to 220
17,CCn1c2ccc(C=O)cc2c2c3ccccc3ccc21,143 to 144
18,O=C(O)/C(=C/c1ccccc1)CSC(=O)c1ccccc1,160
19,O=C1COc2cc(Sc3ccc(O)c(O)c3)ccc2N1,236 to 238
20,CC1(C)SC2C(N3C(=O)c4ccccc4C3=O)C(=O)N2C1C(=O)OCc1ccc([N+](=O)[O-])cc1 (stereo not drawn),233 to 234
21,CC(=O)Oc1ccccc1C(=O)Nc1ncc(S(C)(=O)=O)s1,173 to 175
22,CC(C)(CCCC(=O)O)c1ccc2c(c1)C(=O)c1ccc(C(C)(C)CCCC(=O)O)cc1C2=O,222 to 224
23,C=CCOc1cc(C(=O)O)cc(S(C)(=O)=O)c1OCC=C,163
24,Cc1nc(N2CCc3ccccc3CC2)c(C#N)c(=O)n1C(F)F,143
25,COc1cc2c(cc1OC)Sc1ccc(Cl)cc1C(Cl)C2 (stereo not drawn),139 to 141

row,SMILES,melting point [°C]
1,O=S(=O)(Nc1ccc(OCc2ccc3ccccc3n2)cc1)c1cccc(C(F)(F)F)c1,81 to 83
2,CC(OCc1ccc2ccccc2c1)(C(N)=O)C(F)(F)F (stereo not drawn),111 to 112
3,NS(=O)(=O)CCCCCSc1ccc2nccn2n1,120 to 121
4,Nc1ncc2c(n1)CCC(CNC(=O)[C@@H]1CCCN1C(=O)[C@@H](Cc1ccccc1)NS(=O)(=O)Cc1ccccc1)C2 (stereo partly drawn),118 to 121
5,CCC1C(=O)N(CC)CCc2c1ccc(Nc1ncc(Cl)c(Nc3ccccc3C(=O)NC)n1)c2OC (stereo not drawn),157 to 158
6,COc1cccc(CNS(=O)(=O)Cc2ccc3[nH]cc(CC#N)c3c2)c1,125 to 126
7,O=C(Nc1ccc2[nH]c(=O)sc2c1)C(=O)N1CCC(Oc2ccc(Cl)cc2)CC1,245 to 247
8,NCC1Cc2c(ccc3c2CCCC3)O1 (stereo not drawn),> 225
9,CS(=O)(=O)Nc1ccc(C(=O)C2CCN(CCCOc3ccc([N+](=O)[O-])cc3)CC2)cc1,162 to 164
10,COc1ccc2c(SC(C)(C)C)c(C(C)C(C)(C)C(=O)O)[nH]c2c1 (stereo not drawn),133
11,CS(=O)(=O)c1ccc(-c2nn(Cc3ccccc3)c(=S)cc2-c2ccc(F)cc2)cc1,182
12,COC(=O)c1ccc(NC(C)=O)c([N+](=O)[O-])c1,123 to 124
13,CC(C)c1ccc(NC(=O)C2CCCc3c(OCc4ccccc4)ccc(F)c32)cn1 (stereo not drawn),184
14,O=C(NCCO[N+](=O)[O-])c1cnc(-c2ccccc2)s1,148 to 149
15,CCCCCN(CCC12CC3CC(CC(C3)C1)C2)C(=O)NCCC(C)c1ccncc1 (stereo not drawn),93 to 98
16,N#Cc1ccc(C(=O)N2CCc3c(n(Cc4cccc(C#N)c4)c4ccccc34)C2)cc1,178 to 180
17,CCC1CC(=O)N(CCc2ccc(NC(=O)c3cnccn3)cc2)N=C1c1ccc(OC)c(OC)c1 (stereo not drawn),202
18,CC#CCOc1ccc(S(=O)(=O)N(C)C(C(=O)NO)C(C)(C)SCCN2CCCC2)cc1 (stereo not drawn),55 to 57
19,CN(C)CC(=O)Nc1ccc2c(c1)C(=O)c1cc(NC(=O)CN(C)C)ccc1C2=O,218
20,O=C(NCCC1OCCO1)c1ccc[nH]1,133 to 135
21,N#Cc1c(F)c(F)c(O)c(F)c1F,128 to 129
22,CC(C)(C)C(=O)C=C(C(=O)C(C)(C)C)n1cncn1,107 to 108
23,Cc1c(-c2ccccc2)sc2c1c(=O)c(C(=O)O)cn2Cc1c(F)cccc1F,286 to 289
24,CCCCCCCCCCCCCCCCCCOc1cc(OCCCCc2ccc3cc(O)c(O)cc3c2)cc(N(CC(=O)O)CC(=O)O)c1,153 to 155
25,CN1CCCCC1CCc1ccccc1NC(=O)c1ccoc1 (stereo not drawn),114 to 116

row,SMILES,melting point [°C]
1,Cc1nc(-c2ccc(C(F)(F)F)cc2)sc1C(=O)N[C@H](C)[C@](O)(Cn1cncn1)c1ccc(F)cc1F,79 to 82
2,N#CCC(=N)c1cccc(F)c1,67 to 68
3,COc1ccc2cc(C(C)C(=O)NCC3(C)CCC4C(=C(C)C(C)=CC4(C)O)O3)ccc2c1 (stereo not drawn),67 to 70
4,CC(=O)N(C(C)=O)c1cc2c(c(N(C(C)=O)C(C)=O)c1)OC(C(Cl)(Cl)Cl)OC2C(Cl)(Cl)Cl (stereo not drawn),182 to 183
5,OC(c1c(Br)ccc2c1OCO2)c1cccc2cnccc12 (stereo not drawn),173 to 175
6,C=CCN1C2CCC1C1CCC2N1C(c1ccc(C(=O)N(C)C)cc1)c1cccc(OC)c1 (stereo not drawn),100 to 103
7,CCOC(=O)C(Cc1c[nH]c2c(Cl)cccc12)(NC=O)C(=O)OCC,159 to 162
8,CCc1sc2c(c1S(=O)(=O)c1ccc(O)cc1)CN(Cc1ccccc1Cl)CC2,176
9,CCN1CCCC1CNC(=O)c1cc(S(N)(=O)=O)cc2c1OC(C)C2 (stereo not drawn),164 to 165
10,C=Cc1c(N)nc(-c2ccc(Cl)c(OC)c2F)nc1C(=O)OCc1ccccc1,119 to 121
11,CC(=O)c1cc(Cl)ccc1Nc1ccc(O)cc1,158 to 161
12,NC(=O)N(O)CCNC(=O)c1cc2ccccc2o1,181 to 182
13,Cn1cc(CC(NC(=O)CCCC(=O)O)C(=O)NCCCCNC(=N)N)c2ccccc21 (stereo not drawn),291
14,O=C1CCc2cc(OCc3ccccc3)c(O)cc21,140 to 142
15,COC(=O)C(CNC(=O)OC(C)(C)C)NC(=O)C(C)(C)NC(=O)OCc1ccccc1 (stereo not drawn) (Cbz-[Aib]-[ξDap](Boc)-OMe),100 to 101
16,O=C(O)c1ccccc1Sc1ccc(Cl)c(F)c1,231 to 232
17,O=C(O)c1cc(Cl)cc2ccoc12,212 to 215
18,CC(C)n1nc(-c2c(OCC(=O)O)nc(N)nc2-c2ccccc2)ccc1=O,215 to 217
19,CN1CCC(c2cccc3ccc(-n4cnc5ncccc54)cc23)CC1,118 to 120
20,Cc1cccc(-c2csc(N3CCN(C(=O)Nc4onc(C)c4C)CC3)n2)c1,175 to 176
21,Oc1ccc2c(c1)CCCC(c1ccccc1)=C2c1ccc(OCCI)cc1,229 to 231
22,NC(=O)c1ccc(F)c2c1CC(NCCCc1c[nH]c3ccc(F)cc13)CO2 (stereo not drawn),122
23,COC(=O)c1cc(I)ccc1OC,48 to 50
24,CC(=O)c1ccc(OCCCCCCCc2cc(C)no2)cc1,69 to 71
25,C=Cc1c(C#N)nn(-c2c(Cl)cc(C(F)(F)F)cc2Cl)c1Cl,69.8 to 70.4

row,SMILES,melting point [°C]
1,CCOC(=O)CCCn1c2c(c(=O)n3nc(-c4ccccc4)cc13)CN(C1CCCCC1)C2=O,195 to 196
2,Clc1ccc2c(Nc3ccc(N4CCOCC4)c(CN4CCCC4)c3)ccnc2c1,187 to 188
3,Cn1[nH]c(=O)n(-c2ccc(Cl)cc2F)c1=S,75
4,Cc1ccc(COc2ccc(C(=O)NC[C@@H](C(=O)NO)N3CCCCC3)cc2)c2ccccc12,123
5,CCCOCCOc1ccc(Oc2ccc3c(c2)C=C(C(=O)O)CCS3(=O)=O)cc1OCC,116 to 118
6,COc1ccc(C2CN(S(=O)(=O)c3ccc(C)cc3)Cc3ccccc32)c(CO)c1OC (stereo not drawn),162 to 164
7,NC(=O)c1cnc(Oc2ccc(C3OCCO3)cc2F)cn1,169 to 172
8,CS(=O)(=O)Nc1cccc(SCc2ccccc2)n1,123 to 125
9,CCN(CC)CCOC(=O)c1nn(-c2ccc(Cl)cc2)c2c1CCc1ccccc1-2,102 to 103
10,O=C(NCCN1CCOCC1)Nc1nc2ccc(OCc3c(F)cccc3F)cc2s1,219
11,COC(=O)C(C)NC(=O)CCc1ccc(C(=O)CCl)cc1 (stereo not drawn),122 to 124
12,COc1cc(COC(=O)CCc2nc(-c3ccc(Cl)cc3)co2)cc(OC)c1OC,86 to 87
13,CC(=O)Oc1ccc(C2COc3cc(OC(C)=O)cc(C)c3C2=O)cc1 (stereo not drawn),143 to 145
14,CCc1nc2c(N)nc3ccc(OCc4ccccc4)cc3c2n1C,238 to 239
15,O=C(OC(=O)c1ccccc1S(=O)(=O)O)c1ccccc1S(=O)(=O)O,126 to 129
16,COc1ccc(O)c2c1C(=O)N(Cc1ccccc1)S2=O (stereo not drawn),235 to 237
17,N#Cc1c(I)c(C(=O)NCCO)c(I)c(C(=O)NCCO)c1I,300
18,CN1C(=O)c2c(c3c4ccccc4[nH]c3c3[nH]c4ccccc4c23)C1=O,> 350
19,CC1=NN(C)c2nc(C)c(CCO)c(=O)n2C1,140
20,COc1ccc(OC)c2c1CCC(Nc1ccc(O)cc1)C2 (stereo not drawn),188 to 189
21,Cc1ccc(N2CCCN(c3ccnc4sc(C(N)=O)c(N)c34)CC2)cc1F,79 to 83
22,COc1ccc(CNC(=O)c2cc3c(=O)n(C[C@H]4CC[C@H](C(=O)O)CC4)cnc3cn2)cc1,232 to 233
23,O=C(CO)N1CCN(C(=O)CO)CC1,169 to 173
